Source: patent US5770382A, “Tricyclic retinoids, methods for their production and use” (Ligand Pharmaceuticals, Inc., priority 1995, dated 1998)

Experiments:
Type in all cases: cell-based
RARβ = molecular target: T1, RARβ (Homo sapiens, UniProt P10826); assay: Co-transfection assay, RARβ agonist activity; conditions: CV-1 cells, 40 hours; read-out: RARβ Pot (potency, EC50)
T1 construct: expressed in transfected cells; host or cells: CV-1 (African green monkey kidney fibroblasts)
T1 sequence (P10826 1-448 isoform P10826-2): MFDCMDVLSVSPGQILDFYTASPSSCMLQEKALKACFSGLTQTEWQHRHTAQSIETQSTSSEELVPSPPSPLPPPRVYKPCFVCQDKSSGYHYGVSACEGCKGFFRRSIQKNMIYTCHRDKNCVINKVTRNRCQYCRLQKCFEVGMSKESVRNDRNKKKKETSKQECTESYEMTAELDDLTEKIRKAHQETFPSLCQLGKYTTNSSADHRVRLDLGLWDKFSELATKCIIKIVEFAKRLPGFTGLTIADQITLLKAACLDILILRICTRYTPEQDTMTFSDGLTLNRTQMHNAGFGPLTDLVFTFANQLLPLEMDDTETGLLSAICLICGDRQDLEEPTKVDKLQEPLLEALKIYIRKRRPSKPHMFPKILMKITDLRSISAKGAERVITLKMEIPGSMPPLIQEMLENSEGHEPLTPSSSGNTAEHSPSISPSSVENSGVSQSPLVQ

RARγ = molecular target: T2, RARγ (Homo sapiens, UniProt P13631); assay: Co-transfection assay, RARγ agonist activity; conditions: CV-1 cells, 40 hours; read-out: RARγ Pot (potency, EC50)
T2 construct: expressed in transfected cells; host or cells: CV-1 (African green monkey kidney fibroblasts)
T2 sequence (P13631 1-454): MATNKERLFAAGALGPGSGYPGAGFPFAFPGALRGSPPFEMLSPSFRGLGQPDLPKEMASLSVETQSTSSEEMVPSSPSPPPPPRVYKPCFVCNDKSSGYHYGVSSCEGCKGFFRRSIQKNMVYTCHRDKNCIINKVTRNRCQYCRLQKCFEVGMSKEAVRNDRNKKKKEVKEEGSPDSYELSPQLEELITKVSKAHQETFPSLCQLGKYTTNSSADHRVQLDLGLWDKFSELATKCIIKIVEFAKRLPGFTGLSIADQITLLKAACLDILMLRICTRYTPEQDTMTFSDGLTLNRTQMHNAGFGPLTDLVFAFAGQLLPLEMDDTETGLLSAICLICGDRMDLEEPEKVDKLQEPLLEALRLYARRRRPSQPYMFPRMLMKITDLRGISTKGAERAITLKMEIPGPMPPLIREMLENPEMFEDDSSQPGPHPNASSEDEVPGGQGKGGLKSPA

RXRα = molecular target: T3, RXRα (Homo sapiens, UniProt P19793); assay: Co-transfection assay, RXRα agonist activity; conditions: CV-1 cells, 40 hours; read-out: RXRα Pot (potency, EC50)
T3 construct: expressed in transfected cells; host or cells: CV-1 (African green monkey kidney fibroblasts)
T3 sequence (P19793 1-462): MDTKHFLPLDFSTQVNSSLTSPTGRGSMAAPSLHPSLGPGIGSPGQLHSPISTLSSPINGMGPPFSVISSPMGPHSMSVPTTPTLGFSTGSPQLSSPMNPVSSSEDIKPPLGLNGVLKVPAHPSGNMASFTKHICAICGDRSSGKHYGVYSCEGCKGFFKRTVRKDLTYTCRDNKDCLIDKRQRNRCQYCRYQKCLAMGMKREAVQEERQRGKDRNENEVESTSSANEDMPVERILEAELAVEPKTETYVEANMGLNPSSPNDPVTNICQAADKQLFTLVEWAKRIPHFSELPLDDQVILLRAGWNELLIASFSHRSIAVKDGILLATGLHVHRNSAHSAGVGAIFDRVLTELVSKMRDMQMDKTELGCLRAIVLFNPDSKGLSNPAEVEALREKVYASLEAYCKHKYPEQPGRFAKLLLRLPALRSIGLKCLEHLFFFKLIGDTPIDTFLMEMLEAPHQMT

RXRs = assay: Co-transfection assay, summary for the RXRs
Procedure: Utilizing the "cis-trans" or "co-transfection" assay described by Evans et al., Science, 240:889-95 (May 13, 1988), the disclosure of which is herein incorporated by reference, the retinoid compounds of the present invention were tested and found to have strong, specific activity as either selective RAR agonists, selective RXR agonists, or as pan-agonist activators of both RAR and RXR receptors. This assay is described in further detail in U.S. Pat. Nos. 4,981,784 and 5,071,773, the disclosures of which are incorporated herein by reference.
The co-transfection assay provides a method for identifying functional agonists which mimic, or antagonists which inhibit, the effect of native hormones, and quantifying their activity for responsive IR proteins. In this regard, the co-transfection assay mimics an in vivo system in the laboratory. Importantly, activity in the co-transfection assay correlates very well with known in vivo activity, such that the co-transfection assay functions as a qualitative and quantitative predictor of a tested compounds Ln vivo pharmacology. See, e.g., T. Berger et al. 41 J. Steroid Biochem. Molec. […]
The co-transfection assay can detect small molecule agonists or antagonists of target IRs. […] This activity can be conveniently measured, e.g., by increasing luciferase production, which reflects compound-dependent, IR-mediated increases in reporter transcription. […]

In the case of `CC(/C=C/C=C1/CC(C)(C)Oc2cc3c(cc21)C(C)(C)CCC3(C)C)=C\C(=O)O` [Compound 104b, (2E,4E)-3-Methyl-6-(2,3,6,7,8,9-hexahydro-2,2,6,6,9,9-hexamethylbenzo[b]-chromen-4-ylidene)-hexa-2,4-dienoic acid], the EC50 (RARβ) is reported as 61 nM, the EC50 (RARγ) is reported as 83 nM and the EC50 (RXRα) is reported as 18 nM. For the same compound, the “RXR activity / selectivity (in words)” value (RXRs) was “potent and selective RXR compound”.
